Patent US20250313879A1, “Fluorescent Probe for Detecting Peptide Bond Hydrolase” (The University of Tokyo, priority 2022, published 2025)
Converted amounts (≈) assume the structure as drawn.

Legend:
aminopeptidase A [1] = molecular target: T1, aminopeptidase A (Homo sapiens, UniProt Q07075); assay: Signal/noise ratio of enzymolysate in cuvette; format: biochemical; conditions: 10 μM probe, 170 ng/mL aminopeptidase A, 25° C. 11 hours, @616 nm
Method: (§1) For two types of compounds Glu-sSiR (PB206/Example 12) and GP-sHMRG (PB109/Example 7), the signal/noise ratios of the enzymolysates before and after the enzyme reaction in the cuvette and the microdevice were each measured as follows. In the following experiments, the composition of the assay buffer is 100 mM HEPES-NaOH (pH 7.4), 1 mM MgCl2, 1 mM CaCl2), […].
Glu-sSiR was diluted with an assay buffer so as to be 10 μM, then added to a quartz cuvette, and the fluorescence spectrum before the enzyme reaction was measured with a fluorometer (excitation wavelength: 570 nm). Thereafter, aminopeptidase A was added so that the concentration in the solution was 170 ng/mL, the solution was incubated at 25° C. for 11 hours, and then the fluorescence spectrum was measured. The fluorescence spectra before and after the enzyme reaction were compared, the ratio of the values at a wavelength at which the fluorescence intensity was maximized was calculated as the signal/noise ratio of the enzymolysate, the ratio was 32 times (@616 nm) (see FIG. 7A).

aminopeptidase A [2] = molecular target: T1, aminopeptidase A; assay: Signal/noise ratio of enzymolysate in microdevice; format: biochemical
Method: as §1
For Glu-sSiR, three kinds of solutions of (i) only an assay buffer, (ii) 30 μM of Glu-sSiR, and (iii) 30 μM of Glu-sSiR and 0.2 ng/mL of aminopeptidase A were prepared, and each solution was added to a microdevice, followed by the addition of sealing oil to enclose the solution in each well. The microdevice in which the solution was enclosed was incubated at 37° C. for 4 hours, and then the fluorescence intensity of each well was measured with a fluorescence microscope. When a difference between the average values of the fluorescence intensities of the respective wells in (ii) and (i) was defined as noise, a difference between the average value of the fluorescence intensities of the wells in which the enzyme was encapsulated in (iii) and the average value of the fluorescence intensities of the respective wells in (i) was defined as a signal, and a ratio of these values was calculated as the signal/noise ratio of the enzymolysate, the ratio was 8.3 times (see FIG. 8, panel A). […]

[3] = Solubility in sealing oil (hexadecane); format: physicochemical; conditions: oil or lipid, kinetic from dmso stock, room temperature (25° C.), three tests, average value±standard deviation
Method: That is, 1 μL of a 10 mM DMSO solution of the test compound was added with respect to 100 μL of hexadecane as sealing oil, and the mixture was sonicated and suspended at room temperature (25° C.) for 1 minute. Thereafter, the solution was centrifuged for 30 seconds, 50 μL of the supernatant was collected and mixed with 100 μL of methanol, and a compound dissolved in hexadecane was extracted. Thereafter, the methanol solution from which the compound was extracted was analyzed by ultra performance liquid chromatography (UPLC) (eluent: A/B=95/5>5/95, A: 0.1% formic acid-containing 100% H2O, B: 0.1% formic acid-containing 100% CH3CN), and the concentration of the compound in the methanol solution was calculated from the peak area. In the calculation of the solution concentration using the UPLC peak area, solutions having a plurality of concentrations were prepared and measured for each compound, then a calibration curve was prepared (FIG. 5), and the calculation was performed according to the calibration curve.

[4] = test system: aminopeptidase activity in human plasma sample; assay: Enzyme activity assay in microdevice with human plasma, aminopeptidase probes; format: biochemical; conditions: 50 μM probe, 37° C. for 2 hours
Method: • 1. Ala-sHMRG as a fluorescent probe for detecting aminopeptidase activity was diluted with an assay buffer to 100 μM. The composition of the assay buffer is 100 mM HEPES-NaOH (pH 7.4), 1 mM MgCl2, 0.1% BSA, 1 mM DTT, 1 mM Triton X-100, • 2. Next, a human plasma sample was diluted by 500 times with the above assay buffer, and mixed in an equal amount with the diluted solution of the probe. At this time, the final concentrations of both are 50 μM for Ala-sHMRG and 1,000 fold dilution for the human plasma sample. • 3. The mixed solution of both was then added to a microdevice, followed by the addition of sealing oil to enclose the solution in each well. • 4. The microdevice in which the solution was enclosed was incubated at 37° C. for 4 hours, and then the fluorescence intensity of each well was measured with a fluorescence microscope.
• 1. Leu-sHMRG as a fluorescent probe for detecting aminopeptidase activity was diluted with an assay buffer to 100 μM. The composition of the assay buffer is 100 mM HEPES-NaOH (pH 7.4), 1 mM MgCl2, 1 mM DTT, 3 mM Triton X-100. • 2. Next, a human plasma sample was diluted by 2,500 times with the above assay buffer, and mixed in an equal amount with the diluted solution of the probe. At this time, the final concentrations of both are 50 μM for Leu-sHMRG and 5,000 fold dilution for the human plasma sample. • 3. The mixed solution of both was then added to a microdevice, followed by the addition of sealing oil to enclose the solution in each well. • 4. The microdevice in which the solution was enclosed was incubated at 37° C. for 4 hours, and then the fluorescence intensity of each well was measured with a fluorescence microscope.
(§2) • 5. Met-sHMRG as a fluorescent probe for detecting aminopeptidase activity was diluted with an assay buffer to 100 μM. The composition of the assay buffer is 100 mM HEPES-NaOH (pH 7.4), 1 mM MgCl2, 1 mM CaCl2, 1 mM DTT, 3 mM Triton X-100. • 6. Next, a human plasma sample was diluted by 500 times with the above assay buffer, and mixed in an equal amount with the diluted solution of the probe. At this time, the final concentrations of both are 50 μM for Met-sHMRG and 1,000 fold dilution for the human plasma sample. • 7. The mixed solution of both was then added to a microdevice, followed by the addition of sealing oil to enclose the solution in each well. • 8. The microdevice in which the solution was enclosed was incubated at 37° C. for 2 hours, and then the fluorescence intensity of each well was measured with a fluorescence microscope.
as §2, with “• 9. Tyr-sHMRG” for “• 5. Met-sHMRG”, “• 10.” for “• 6.”, “for Tyr-sHMRG” for “for Met-sHMRG”, “• 11.” for “• 7.”, “• 12.” for “• 8.”, “for 4” for “for 2”
• 1. Lys-sHMRG as a fluorescent probe for detecting aminopeptidase activity was diluted with an assay buffer to 100 μM. The composition of the assay buffer is 100 mM HEPES-NaOH (pH 7.4), 1 mM MgCl2, 1 mM CaCl2, 1 mM DTT, 3 mM Triton X-100. • 2. Next, a human plasma sample was diluted by 10,000 times with the above assay buffer, and mixed in an equal amount with the diluted solution of the probe. At this time, the final concentrations of both are 50 μM for Lys-sHMRG and 20,000 fold dilution for the human plasma sample. • 3. […]

CD13 = assay: Diagnostic experiment of pancreatic cancer utilizing single-molecule enzyme activity of CD13; format: biochemical, human; conditions: patients with pancreatic cancer compared with healthy subjects; 50 μM probe, plasma 20,000 fold dilution, 37° C. 2 hours
Method: In order to detect the single-molecule enzyme activity of CD13, an experiment to verify the availability of a probe to which […] is bonded as a reaction point (in General Formula (I) or (II), an alanine residue was introduced as —CO—R0 or —CO—R^10) to detect a pancreatic cancer biomarker was performed in the following procedures. • 1. Ala-sSiR as a CD13 detecting probe was diluted with an assay buffer to 100 μM. The composition of the assay buffer is 100 mM HEPES-NaOH (pH 7.4), 1 mM MgCl2, 1 mM CaCl2), 1 mM DTT, 3 mM Triton X-100. • 2. Next, human plasma samples collected from 30 patients with pancreatic cancer and 30 healthy subjects were each diluted by 10,000 times with the above assay buffer, and mixed in an equal amount with the diluted solution of Ala-sSiR. […] The microdevice in which the solution was enclosed was incubated at 37° C. for 2 hours, and then the fluorescence intensity of each well was measured with a fluorescence microscope.
Specifically, in this example, an ROC curve for determination based on the enzyme activity of CD13 determined based on the proportion of wells with a luminance of 2500 AU or more is created, and when a threshold is subtracted at the time when the number of wells of a signal is 3%, the sensitivity is 27% and the specificity is 100% (the right view of FIG. 3). […]

T1 sequence (Q07075 whole entry, species assumed): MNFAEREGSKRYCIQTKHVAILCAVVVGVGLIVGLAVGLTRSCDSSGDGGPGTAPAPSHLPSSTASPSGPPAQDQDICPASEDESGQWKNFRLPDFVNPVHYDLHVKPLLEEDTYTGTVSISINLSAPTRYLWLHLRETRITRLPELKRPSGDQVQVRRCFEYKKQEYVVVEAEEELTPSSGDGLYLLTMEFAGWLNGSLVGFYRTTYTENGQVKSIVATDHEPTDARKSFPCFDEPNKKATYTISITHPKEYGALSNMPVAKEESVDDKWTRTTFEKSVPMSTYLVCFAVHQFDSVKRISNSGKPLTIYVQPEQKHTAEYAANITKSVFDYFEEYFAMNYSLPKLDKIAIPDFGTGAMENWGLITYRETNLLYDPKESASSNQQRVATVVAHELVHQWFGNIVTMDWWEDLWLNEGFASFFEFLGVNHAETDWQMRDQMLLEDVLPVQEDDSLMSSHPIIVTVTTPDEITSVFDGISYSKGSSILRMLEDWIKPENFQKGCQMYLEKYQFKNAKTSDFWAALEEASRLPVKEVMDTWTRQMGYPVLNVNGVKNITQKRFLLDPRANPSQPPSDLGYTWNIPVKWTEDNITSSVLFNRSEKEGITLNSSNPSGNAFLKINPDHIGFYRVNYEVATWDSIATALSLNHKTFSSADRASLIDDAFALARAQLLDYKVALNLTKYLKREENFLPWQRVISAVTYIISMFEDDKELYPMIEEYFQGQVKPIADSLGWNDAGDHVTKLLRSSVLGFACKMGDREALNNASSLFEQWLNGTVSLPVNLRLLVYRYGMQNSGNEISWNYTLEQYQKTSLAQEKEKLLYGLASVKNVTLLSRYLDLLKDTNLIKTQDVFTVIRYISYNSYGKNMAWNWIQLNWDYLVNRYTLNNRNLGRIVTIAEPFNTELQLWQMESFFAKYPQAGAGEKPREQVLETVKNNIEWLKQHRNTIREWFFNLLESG

Row | SMILES | signal/noise ratio of the enzymolysate (aminopeptidase A [1]) | ratio of the signal/noise ratio in the microdevice to the signal/noise ratio in the cuvette (aminopeptidase A [2]; aminopeptidase A) | signal/noise ratio of the enzymolysate (aminopeptidase A [2]; microdevice, 30 μM probe, 0.2 ng/mL aminopeptidase A, 37° C. 4 hours) | solubility at 1 min [3] | fluorescence intensity of wells in which the reacting enzyme was enclosed ([4]; human plasma 1,000 fold dilution) | fluorescence intensity of wells in which the reacting enzyme was enclosed ([4]; human plasma 20,000 fold dilution) | number of wells in which the luminance is 2,500 AU or more (CD13 considered enclosed) (CD13)
1 | Cc1ccc(S(=O)(=O)O)cc1C1=C2C=CC(=N)C=C2[Si](C)(C)c2cc(NC(=O)[C@@H](N)CCC(=O)O)ccc21 [Glu-sSiR] | 32 times | 0.26 | 8.3 times | 0.3 ± 0.096 µM (≈ 0.166 µg/mL) | increase in fluorescence intensity was observed | – | –
2 | Cc1ccc(S(=O)(=O)O)cc1C1=C2C=CC(=N)C=C2[Si](C)(C)c2cc(NC(=O)[C@H](C)N)ccc21 [Ala-sSiR] | – | – | – | – | – | increase in fluorescence intensity was observed | significant increase
